What was measured:
Vibrio sp. [1] = assay: Vibrio reduction by silver combined with berberine during hatching (Example 4, Figure 2); assay type: cell-based; conditions: berberine 0.1 mg/l to 2.5 mg/l added together with silver 0.1 mg Ag per liter
Method: GSL-cysts were incubated at 2g cysts /l, following standard procedures, i.e.: salinity of 25 g/l, temperature of 30°C. Continuous illumination and air bubbling was provided. Silver nitrate, thiosulphate and berberine were added in different concentrations to the hatching medium. After 24 hours, the hatching percentage was calculated and samples of the hatching medium were taken for determination of Vibrio sp. on TCBS.

gram-positive bacteria = conditions: against gram-positive bacteria; cited from earlier work
[2] = system: marine heterotrophic bacterial population; assay: Total bacterial count on Marine agar in hatching medium (Example 1); assay type: cell-based; conditions: after 24 hours; summary of Table 1
Method: (§1) 1000 g commercially available dry cysts from Great Salt Lake (GSL-strain) were sprayed with 20 ml solution to which 2.43g or 2.02g AgNO3 is added and another 1000 g cysts were sprayed with 20 ml to which 14.20g or 11.81g thiosulphate (Na2S2O3.5(H2O)) is added (in a ratio of 4 mol thiosulphate to 1 mol AgNO3) to obtain respectively 1.50 or 1.25 mg Ag/l in the hatching medium, after incubation of 2g treated cysts therein. The cysts were gently mixed for 15-30 minutes while spraying. Both fractions were mixed together in a ratio of (1:1). The cysts were vacuum packed and stored at different temperatures (4°C, 20°C and 30°C). Cysts from the same batch were kept as a control. After 4 weeks they were incubated at 2g (treated) cysts /l, following standard procedures, i.e.: salinity of 25 g/I, temperature of 30°C. Continuous illumination and air bubbling was provided. After 24 hours of incubation, samples of the hatching medium were taken for determination of the total count on Marine agar (MA) and Vibrio sp. on TCBS (specific growth medium for Vibrio sp.). The hatching percentage (percentage of cysts that hatch on the total of full cysts) of the cysts was calculated. Tabel 1: Hatching percentage (HP) of cysts, number of colony forming units (cfu) per ml of hatching medium on MA and on TCBS after 24h incubation of Artemia cysts of control cysts and cysts with different amounts of AgNO3 (expressed as mg Ag/l hatching medium). Each value is the average of three counts.

Vibrio sp. [3] = assay: Vibrio count on TCBS in hatching medium (Example 1); assay type: cell-based; conditions: after 24 hours; summary of Table 1
Method: as §1

Row | Molecule | reduction in Vibrio species (Vibrio sp. [1]) | inhibitory activity (gram-positive bacteria) | total counts on Marine Agar [2] | TCBS (Vibrio sp.) in the medium with treated cysts (Vibrio sp. [3])
1 | COc1ccc2cc3[n+](cc2c1OC)CCc1cc2c(cc1-3)OCO2 [berberine, reference compound] | some reduction in Vibrio species is observed | 50 to 400 mg/L | – | –
2 | silver thiosulphate [silver nitrate and thiosulphate] | – | – | not affected | < 300 cfu/ml
